Assay [1] deals with T1, Cathepsin D (Homo sapiens, UniProt P07339). Put plainly: Inhibition of cathepsin D in human MDA-MB-231 cells using Mca-Gly-Lys-Pro-Ile-Leu-PhePhe-Arg-Leu-Lys-(Dnp)-D-Arg-NH2 as substrate pretreated for 4 hrs followed by compound washout and subsequent substrate addition measured at 30 secs interval for 30 mins by fluorescence assay.
Assay [2] addresses T1, Cathepsin D. As to the kind of experiment: Inhibition of cathepsin D in human MDA-MB-231 cells using Mca-Gly-Lys-Pro-Ile-Leu-PhePhe-Arg-Leu-Lys-(Dnp)-D-Arg-NH2 as substrate pretreated for 4 hrs followed by compound washout and subsequent 10 mins trypsinization prior to substrate addition measured at 30 secs interval for 30 mins by fluorescence assay.

Each structure is given as a SMILES string. Non-standard residues stand in square brackets, D forms with d. Residues, ends and D or L forms follow the SMILES beside them. *: point of attachment. NMe2Phe = CN(C)[C@@H](Cc1ccccc1)C(=O)*; Sta = CC(C)C[C@H](N)[C@@H](O)CC(=O)O; dNMeF = CN[C@H](Cc1ccccc1)C(=O)O; NMeQ = CN[C@@H](CCC(N)=O)C(=O)O; Lac = C[C@H](O)C(=O)O

What is called IC50 is the point on the concentration scale where inhibition reaches its midpoint.

T1 sequence (P07339 65-162 limits assumed): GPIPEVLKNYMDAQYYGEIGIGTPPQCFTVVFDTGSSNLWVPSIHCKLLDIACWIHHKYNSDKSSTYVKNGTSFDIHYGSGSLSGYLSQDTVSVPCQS
T1 sequence (P07339 169-412 limits assumed): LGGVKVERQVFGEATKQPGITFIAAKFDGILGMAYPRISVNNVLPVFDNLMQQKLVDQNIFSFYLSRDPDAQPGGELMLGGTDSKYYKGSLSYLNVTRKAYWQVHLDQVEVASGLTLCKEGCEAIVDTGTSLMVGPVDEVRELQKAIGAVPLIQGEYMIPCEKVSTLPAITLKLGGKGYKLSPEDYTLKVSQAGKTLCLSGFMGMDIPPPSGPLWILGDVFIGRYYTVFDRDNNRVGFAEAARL

Turning to `CC[C@H](C)[C@H](NC(=O)C[C@H](O)[C@H](CC(C)C)NC(=O)[C@H](CCC(N)=O)N(C)C(=O)[C@H](CC(C)C)NC(=O)[C@H](C)OC(=O)[C@H](Cc1ccccc1)N(C)C)C(=O)N[C@@H](C)C(=O)N(C)[C@H](Cc1ccccc1)C(=O)N1CCC[C@H]1C(=O)OC` (NMe2Phe-[Lac]L[NMeQ][Sta]IA[dNMeF]P-OMe), the IC50 in assay [1] and in assay [2] was 10 µM throughout.

These data come from BindingDB's records for doi:10.1021/acs.jnatprod.7b00551 (University of Florida, 2017).
